The values below come from patent publication US11180474B2 (BRISTOL-MYERS SQUIBB COMPANY, priority 2016, dated 2021).

SMILES strings stand for the structures.

One assay has as its target T1, human TLR9 (Homo sapiens, UniProt Q9NR96).
T1 construct: host or cells: HEK-Blue cells
T1 sequence (Q9NR96 26-1032): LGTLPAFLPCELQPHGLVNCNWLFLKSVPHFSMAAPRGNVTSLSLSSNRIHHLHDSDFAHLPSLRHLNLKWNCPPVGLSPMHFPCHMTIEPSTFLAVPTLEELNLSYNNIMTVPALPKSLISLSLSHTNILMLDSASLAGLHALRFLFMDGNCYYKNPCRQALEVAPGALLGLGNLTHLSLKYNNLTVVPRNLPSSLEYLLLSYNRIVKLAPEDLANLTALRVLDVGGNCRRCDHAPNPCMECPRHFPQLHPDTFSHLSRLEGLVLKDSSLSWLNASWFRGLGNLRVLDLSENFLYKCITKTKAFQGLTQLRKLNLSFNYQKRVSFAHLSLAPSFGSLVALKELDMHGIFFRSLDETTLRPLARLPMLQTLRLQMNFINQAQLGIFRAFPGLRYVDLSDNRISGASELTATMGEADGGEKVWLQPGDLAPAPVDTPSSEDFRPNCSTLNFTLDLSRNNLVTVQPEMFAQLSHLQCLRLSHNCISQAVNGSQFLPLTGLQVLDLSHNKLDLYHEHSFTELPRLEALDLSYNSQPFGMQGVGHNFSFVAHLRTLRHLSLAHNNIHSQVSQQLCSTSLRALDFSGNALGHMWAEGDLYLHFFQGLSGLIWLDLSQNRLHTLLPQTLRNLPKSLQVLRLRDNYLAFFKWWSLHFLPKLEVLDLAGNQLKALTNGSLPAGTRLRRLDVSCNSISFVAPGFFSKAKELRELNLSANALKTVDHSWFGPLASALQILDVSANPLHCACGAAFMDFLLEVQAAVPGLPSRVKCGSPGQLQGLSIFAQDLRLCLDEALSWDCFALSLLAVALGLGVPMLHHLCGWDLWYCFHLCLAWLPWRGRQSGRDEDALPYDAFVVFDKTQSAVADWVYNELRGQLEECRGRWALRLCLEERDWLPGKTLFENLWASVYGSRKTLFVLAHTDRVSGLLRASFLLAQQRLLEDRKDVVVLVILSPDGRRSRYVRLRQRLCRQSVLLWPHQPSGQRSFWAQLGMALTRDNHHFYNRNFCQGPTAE
Briefly: TLR9 inhibition reporter assay (HEK-Blue cells, SEAP reporter, ODN2006 stimulation). It is filed as cell-based. The note with it: HEK-Blue cells overexpressing human TLR9, ODN2006 5 nM. A digest of the protocol:
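HEK-Blue cells overexpressing human TLR7, TLR8 or TLR9 carry a SEAP reporter driven by NF-κB/AP-1 sites. Compounds (0.05 nM–50 μM) were preincubated 30 min at room temperature, then cells were stimulated with gardiquimod 7.5 μM (TLR7), R848 15.9 μM (TLR8) or ODN2006 5 nM (TLR9) for 22 h at 37 °C.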

Another assay concerns the target T2, human TLR7 (Homo sapiens, UniProt Q9NYK1).
T2 construct: host or cells: HEK-Blue cells
T2 sequence (Q9NYK1 27-1049): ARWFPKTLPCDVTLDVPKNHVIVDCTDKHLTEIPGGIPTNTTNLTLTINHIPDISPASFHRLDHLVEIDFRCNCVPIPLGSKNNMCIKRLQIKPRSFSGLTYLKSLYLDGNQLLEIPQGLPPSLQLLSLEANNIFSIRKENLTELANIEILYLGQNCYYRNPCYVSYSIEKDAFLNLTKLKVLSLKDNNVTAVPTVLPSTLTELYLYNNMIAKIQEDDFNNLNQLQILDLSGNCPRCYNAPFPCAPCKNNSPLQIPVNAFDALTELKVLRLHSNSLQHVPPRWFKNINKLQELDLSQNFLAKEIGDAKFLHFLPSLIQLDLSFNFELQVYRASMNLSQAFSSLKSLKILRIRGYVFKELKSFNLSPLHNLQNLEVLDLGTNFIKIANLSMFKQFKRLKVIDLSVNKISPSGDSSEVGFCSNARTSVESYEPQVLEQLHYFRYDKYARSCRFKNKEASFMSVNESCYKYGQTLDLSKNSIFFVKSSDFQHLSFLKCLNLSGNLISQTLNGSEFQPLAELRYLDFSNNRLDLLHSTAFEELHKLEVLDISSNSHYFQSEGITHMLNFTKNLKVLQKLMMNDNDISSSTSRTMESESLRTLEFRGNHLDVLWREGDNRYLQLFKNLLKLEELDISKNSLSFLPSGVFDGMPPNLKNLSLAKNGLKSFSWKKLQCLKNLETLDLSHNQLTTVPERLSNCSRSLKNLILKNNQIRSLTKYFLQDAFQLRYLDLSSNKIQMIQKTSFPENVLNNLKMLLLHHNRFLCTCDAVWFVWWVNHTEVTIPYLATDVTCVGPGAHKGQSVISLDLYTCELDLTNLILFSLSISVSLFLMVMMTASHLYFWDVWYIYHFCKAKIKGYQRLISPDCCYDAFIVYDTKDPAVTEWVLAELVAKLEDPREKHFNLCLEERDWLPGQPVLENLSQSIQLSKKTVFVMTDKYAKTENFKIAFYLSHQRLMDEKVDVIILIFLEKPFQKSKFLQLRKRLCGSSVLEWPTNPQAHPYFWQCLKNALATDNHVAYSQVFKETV
The assay is described as follows: TLR7 inhibition reporter assay (HEK-Blue cells, SEAP reporter, gardiquimod stimulation). It is filed as cell-based. The conditions noted are these: HEK-Blue cells overexpressing human TLR7, gardiquimod 7.5 μM. A digest of the protocol: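 SEAP readout via HEK-Blue Detection medium after 22 h at 37 °C, 5% CO2 defines inhibition, normalized between agonist-plus-DMSO wells and a reference inhibitor. Compound dose range 0.05 nM–50 μM; TLR7 cells at 15,000/well (gardiquimod), TLR8 at 20,000/well (R848).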
(Reporter assays use an easily measured gene product as a stand-in for the process of interest.)

A word on the IC50: it is the concentration needed to halve the response being measured.

With `CCN1CCC(N2CCC(c3ccc4[nH]c(-c5ccc(OC)c(OC)c5)c(C)c4c3)CC2)CC1` [Example 44, 2-(3,4-dimethoxyphenyl)-5-(1′-ethyl-[1,4′-bipiperidin]-4-yl)-3-methyl-1H-indole], the IC50 at human TLR9 worked out at 301 nM; against human TLR7, 468 nM.
Turning to `COc1ccc(-c2[nH]c3ccc(C4CCN(C5CCN(Cc6cccn6C)CC5)CC4)cc3c2C)cc1OC` [Example 78, 2-(3,4-dimethoxyphenyl)-3-methyl-5-(1′-((1-methyl-1H-pyrrol-2-yl)methyl)-[1,4′-bipiperidin]-4-yl)-1H-indole], the results for the IC50 on human TLR9 and against human TLR7 were 130 nM and 223 nM, respectively.
The corresponding values for `C#CCCCCC(=O)NCCN1CCC(c2ccc3[nH]c(-c4ccc(OC)c(OC)c4)c(C(C)C)c3c2)CC1` [Example 411, N-(2-(4-(2-(3,4-dimethoxyphenyl)-3-isopropyl-1H-indol-5-yl)piperidin-1-yl)ethyl)hept-6-ynamide] are 3890 nM and 63 nM.
Consider `COc1ccc(-c2[nH]c3ccc(C4CCN(C(=O)CN5CCC(N(C)C)CC5)CC4)cc3c2C)cc1OC` [Example 407, 1-(4-(2-(3,4-dimethoxyphenyl)-3-methyl-1H-indol-5-yl)piperidin-1-yl)-2-(4-(dimethylamino)piperidin-1-yl)ethan-1-one], for which the IC50 was found to be 11500 nM against human TLR9 and 12300 nM against human TLR7.
Taken in the same sequence, the figures for `CCN(CC)C(=O)C1CCCN(CC(=O)N2CCC(c3ccc4[nH]c(-c5ccc(OC)c(OC)c5)c(CC(F)(F)F)c4c3)CC2)C1` (centres unmarked) [Example 418, 1-(2-(4-(2-(3,4-dimethoxyphenyl)-3-(2,2,2-trifluoroethyl)-1H-indol-5-yl)piperidin-1-yl)-2-oxoethyl)-N,N-diethylpiperidine-3-carboxamide] were 1450 nM and 79 nM.
Taken in the same sequence, the figures for `CNCC(=O)N1CCC(c2ccc3[nH]c(-c4ccc(OC)c(OC)c4)c(CC(F)(F)F)c3c2)CC1` [Example 414, 1-(4-(2-(3,4-dimethoxyphenyl)-3-(2,2,2-trifluoroethyl)-1H-indol-5-yl)piperidin-1-yl)-2-(methylamino)ethanone] were 1170 nM and 58 nM.
As to `COc1ccc(-c2[nH]c3ccc(C4CCN(C5CCN(CC(C)(C)C)CC5)CC4)cc3c2C)cc1OC` [Example 75, 2-(3,4-dimethoxyphenyl)-3-methyl-5-(1′-neopentyl-[1,4′-bipiperidin]-4-yl)-1H-indole], the IC50 against human TLR9 worked out at 169 nM; against human TLR7 it was 734 nM.
The corresponding values for `COc1ccc(-c2[nH]c3ccc(C4CCN(C5CCN(CC(O)CO)CC5)CC4)cc3c2C)cc1OC` (centres unmarked) [Example 52, 3-(4-(2-(3,4-dimethoxyphenyl)-3-methyl-1H-indol-5-yl)-[1,4′-bipiperidin]-1′-yl)propane-1,2-diol] are 268 nM and 230 nM.
The corresponding values for `COc1ccc(-c2[nH]c3ccc(C4CCN(C5CCN(C6CCC(O)CC6)CC5)CC4)cc3c2C)cc1OC` (centres unmarked) [Example 84, 4-(4-(2-(3,4-dimethoxyphenyl)-3-methyl-1H-indol-5-yl)-[1,4′-bipiperidin]-1′-yl)cyclohexan-1-ol] are 192 nM and 490 nM.
The corresponding values for `COc1ccc(-c2[nH]c3ccc(C4CCN(C5CC(C)(C)NC(C)(C)C5)CC4)cc3c2C)cc1OC` [Example 48, 2-(3,4-dimethoxyphenyl)-3-methyl-5-(2′,2′,6′,6′-tetramethyl-[1,4′-bipiperidin]-4-yl)-1H-indole] are 435 nM and 560 nM.
In the case of `CCN1CCCC(N2CCC(c3ccc4[nH]c(-c5ccc(OC)c(OC)c5)c(C)c4c3)CC2)CC1` (centres unmarked) [Example 97, 2-(3,4-dimethoxyphenyl)-5-(1-(1-ethylazepan-4-yl)piperidin-4-yl)-3-methyl-1H-indole], the IC50 on human TLR9 was 397 nM; against human TLR7, 931 nM.
Taken in the same sequence, the figures for `CCN(CC)C(=O)C1CCCN(CC(=O)N2CCC(c3ccc4[nH]c(-c5ccc(OC)c(OC)c5)c(CC(F)(F)F)c4c3)CC2)C1` (centres unmarked) [Example 421, 1-(2-(4-(2-(3,4-dimethoxyphenyl)-3-(2,2,2-trifluoroethyl)-1H-indol-5-yl)piperidin-1-yl)-2-oxoethyl)-N,N-diethylpiperidine-3-carboxamide] were 2280 nM and 114 nM.
Taken in the same sequence, the figures for `COc1ccc(-c2[nH]c3ccc(C4CCN(C5CCN(C6CCCC6)CC5)CC4)cc3c2C)cc1OC` [Example 62, 5-(1′-cyclopentyl-[1,4′-bipiperidin]-4-yl)-2-(3,4-dimethoxyphenyl)-3-methyl-1H-indole] were 196 nM and 225 nM.
The corresponding values for `CNCCN1CCC(c2ccc3[nH]c(-c4ccc(OC)c(OC)c4)c(CC(F)(F)F)c3c2)CC1` [Example 413, 2-(4-(2-(3,4-dimethoxyphenyl)-3-(2,2,2-trifluoroethyl)-1H-indol-5-yl)piperidin-1-yl)-N-methylethanamine] are 626 nM and 83 nM.
As for `COc1ccc(-c2[nH]c3ccc(C4CCN(C5CCN(CCC(F)(F)F)CC5)CC4)cc3c2C)cc1OC` [Example 50, 2-(3,4-dimethoxyphenyl)-3-methyl-5-(1′-(3,3,3-trifluoropropyl)-[1,4′-bipiperidin]-4-yl)-1H-indole], the figures for the IC50 against human TLR9 and against human TLR7 were 442 nM and 1090 nM, respectively.
In the case of `COc1ccc(-c2[nH]c3ccc(C4CCN(C(=O)CNCCC(C)O)CC4)cc3c2C)cc1OC` (centres unmarked) [Example 406, 1-(4-(2-(3,4-dimethoxyphenyl)-3-methyl-1H-indol-5-yl)piperidin-1-yl)-2-((3-hydroxybutyl)amino)ethan-1-one], the IC50 against human TLR9 was found to be 3890 nM; against human TLR7 it was 1180 nM.
The corresponding values for `COc1ccc(-c2[nH]c3ccc(C4CCN(C5CCCN(C6CCCC6)CC5)CC4)cc3c2C)cc1OC` (centres unmarked) [Example 93, 5-(1-(1-cyclopentylazepan-4-yl)piperidin-4-yl)-2-(3,4-dimethoxyphenyl)-3-methyl-1H-indole] are 237 nM and 903 nM.
The corresponding values for `COc1ccc(-c2[nH]c3ccc(C4CCN(C5CCN(CC6CCOC6)CC5)CC4)cc3c2C)cc1OC` (centres unmarked) [Example 74] are 62 nM and 1080 nM.
Consider `COc1ccc(-c2[nH]c3ccc(C4CCN(C5CCN(CC6CCCCC6)CC5)CC4)cc3c2C)cc1OC` [Example 58, 5-(1′-(cyclohexylmethyl)-[1,4′-bipiperidin]-4-yl)-2-(3,4-dimethoxyphenyl)-3-methyl-1H-indole], for which the IC50 against human TLR9 came to 86 nM; at human TLR7, 266 nM.
